As a reminder, the IC50 is the point on the concentration scale where inhibition reaches its midpoint. A low value points to greater potency in that assay. Broadly, the inhibition is the relative decrease from the control value, in per cent.

The values that follow come from patent US5145783A, “Glyphosate-tolerant 5-endolpyruvyl-3-phosphoshikimate synthase” (Monsanto Company, priority 1990, dated 1992).

The subject of assay [1] is Brassica napus calli transformed with pMON600. Kind of assay: Growth of pMON600-transformed calli on glyphosate. It counts as cell-based. Conditions: 0.5 mM glyphosate, three gentamicin resistant calli.
Assay [2] has as its target T1, wild-type maize EPSP synthase (Zea mays, UniProt A0A1D6NVZ6).
T1 sequence (A0A1D6NVZ6 1-506): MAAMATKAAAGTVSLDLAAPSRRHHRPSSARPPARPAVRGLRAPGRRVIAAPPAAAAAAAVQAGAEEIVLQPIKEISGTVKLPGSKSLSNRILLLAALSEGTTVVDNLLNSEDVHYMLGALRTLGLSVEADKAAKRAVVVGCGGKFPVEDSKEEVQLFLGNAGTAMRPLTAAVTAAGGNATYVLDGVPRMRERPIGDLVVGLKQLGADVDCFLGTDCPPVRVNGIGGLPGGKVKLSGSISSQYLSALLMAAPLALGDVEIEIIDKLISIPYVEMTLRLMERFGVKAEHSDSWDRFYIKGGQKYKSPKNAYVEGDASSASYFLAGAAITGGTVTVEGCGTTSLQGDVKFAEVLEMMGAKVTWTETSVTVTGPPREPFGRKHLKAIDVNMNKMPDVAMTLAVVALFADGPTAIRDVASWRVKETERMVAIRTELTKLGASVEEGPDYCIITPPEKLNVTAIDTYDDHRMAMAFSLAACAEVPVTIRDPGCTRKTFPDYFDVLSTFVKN
Nature of the assay: EPSP synthase activity of in vitro translation product of pMON9951. Conditions: 1.0 mM glyphosate. It counts as biochemical. The procedure:
(§1) The linearized plasmid DNA was transcribed in vitro with T7 polymerase essentially as described by Krieg et al. 1984. The standard reaction buffer contained 40 mM Tris-HCl (pH 7.9), 6 mM MgCl2, 10 mM dithiothreitol, 2 mM spermidine, 80 U RNAsin ribuonuclease inhibitor, 0.5 mM each of ATP, GTP, CTP and UTP, in a final reaction volume of 100 μl. The final RNA pellet was resuspended in 20 μl of sterile water and stored at -80° C. A standard translation reaction contained 100 μl of nuclease-treated rabbit reticulocyte lysate, 5.7 μl of a 19-amino acid mixture (minus methionine at 1 mM each, 5.7 μl of RNA (total RNA transcripts derived from 0.63 μg of plasmid DNA), 16 μl RNAsin (20U/μl) ribonuclease inhibitor, and 58.3 μl of [^35 S] methionine (14-15 mCi/ml). The in vitro translation products were stored frozen at -80 ° C.
(§2) The products of the in vitro translation were then assayed for EPSP synthase activity as described herein.

The target in assay [3] is T2, glyphosate-tolerant EPSP synthase (gly(101)-ala) of tomato (Solanum lycopersicum, UniProt P10748, G177A).
T2 construct: ATG translational initiation codon at the site predicted to be the start of the mature enzyme for in vitro expression in E. Coli; initiator methionine (ATG in an engineered NcoI site) (N); made in house; host or cells: E. coli SR481 (aroA mutant) harboring pMON9729, desalted cell extract
Nature of the assay: EPSP synthase activity assay, extracts of E. coli SR481 harboring pMON9729. The format is biochemical. The procedure: E. coli SR481 cells harboring pMON9719 or pMON9729 were grown under conditions which induce the expression of the RecA promoter. The cells were lysed and the extracts were assayed for EPSP synthase activity.
Specifically, the bacterial cell paste was washed twice with 0.9% saline, suspended in buffer (100 mM Tris-HCl, 5 mM dithiothreitol, 1 mM EDTA, 10% glycerol and 1 mM benzamidine HCl) passed twice through the French Pressure Cell at 1000 psi. The cell abstract was separated from the cells by centrifuging at 15,000×gravity for 10 mins. at 5° C. It was desalted using Sephadex G-50 (Pharmacia, Piscataway, N.J.). The desalted extract was assayed for EPSP synthase activity as follows:
To an assay mix (40 μl) containing shikimate-3-phosphate (2 mM), ^14 C-phosphoenolpyruvate (1 mM, 1.2 mCi/mmol), ammonium molybdate (0.1 mM), potassium fluoride (5 mM), in 50 mM HEPES-KOH, pH 7, was added 10 μl of the extract and incubated at 25° C. for 2 mins. […] The radioactivity of the eluent was monitored using a Radiometric Flo-One Beta Instrument. […] The EPSP synthase activity was determined by measurement of the conversion of ^14 C-PEP to ^14 […], both of which are resolved under the above conditions of chromatography. The protein content of the extract was determined by the method of Bradford (Biorad Labs, Calif.). […]

The subject of assay [4] is control petunia leaf disks (pMON505). Nature of the assay: Callus growth of petunia leaf disks on glyphosate media, control vector pMON505. It counts as cell-based. The procedure:
Leaf disks with diameters of 6 mm (1/4 inch) were taken from surface-sterilized petunia leaves. They were cultivated on MS104 agar medium for 2 days to promote partial cell wall formation at the wound surfaces. They were then submerged in a culture of A. tumefaciens cells containing both pMON546 and GV3111-SE which had been grown overnight in Luria broth at 28° C., and shaken gently. The cells were removed from the bacterial suspension, blotted dry, and incubated upside down on filter paper placed over "nurse" cultures of tobacco cells, as described in Horsch (1980). After 2 or 3 days, the disks were transferred to petri dishes containing MS media with 500 μg/ml carbenicillin and 0., 0.1, 0.25, or 0.5 mM glyphosate (sodium salt), with no nurse cultures.
Control tissue was created using A. tumefaciens cells containing the helper plasmid pGV3111-SE and a different plant transformation vector, pMON505, which contained a T-DNA region with a NOS/NPTII/NOS kanamycin resistance gene and a NOS selectable marker gene identical to pMON546, but without the CaMV35S/EPSP synthase gene.
Within 10 days after transfer to the media containing glyphosate, actively growing callus tissue appeared on the periphery of all disks on the control plate containing no glyphosate. […] This confirms that the CaMV35S/EPSP synthase gene conferred glyphosate resistance upon the transformed cells.

The target of assay [5] is T3, mutant maize pre-EPSP synthase (alanine for second glycine) (Zea mays, UniProt A0A1D6NVZ6, G163A).
T3 construct: full-length cDNA pre-enzyme with chloroplast transit peptide, T7 in vitro transcription, rabbit reticulocyte lysate translation
Kind of assay: EPSP synthase activity of in vitro translation product of pMON9960. The format is biochemical. As to the method: as §1, §2

T3 sequence (A0A1D6NVZ6 entry or part of it G163A): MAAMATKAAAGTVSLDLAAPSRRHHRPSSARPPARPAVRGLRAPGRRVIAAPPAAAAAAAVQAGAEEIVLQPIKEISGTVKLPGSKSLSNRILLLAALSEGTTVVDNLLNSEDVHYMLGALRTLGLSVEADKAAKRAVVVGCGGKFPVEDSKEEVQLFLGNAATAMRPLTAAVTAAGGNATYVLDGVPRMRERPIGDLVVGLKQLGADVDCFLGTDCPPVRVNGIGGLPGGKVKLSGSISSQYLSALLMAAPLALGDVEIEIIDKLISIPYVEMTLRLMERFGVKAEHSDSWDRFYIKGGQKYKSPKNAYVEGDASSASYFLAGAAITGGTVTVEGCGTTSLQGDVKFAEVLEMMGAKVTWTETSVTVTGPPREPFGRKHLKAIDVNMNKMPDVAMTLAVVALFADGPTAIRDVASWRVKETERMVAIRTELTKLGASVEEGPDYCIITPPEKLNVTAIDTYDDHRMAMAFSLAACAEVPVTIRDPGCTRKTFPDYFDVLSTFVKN
T2 sequence (P10748 77-520 G177A): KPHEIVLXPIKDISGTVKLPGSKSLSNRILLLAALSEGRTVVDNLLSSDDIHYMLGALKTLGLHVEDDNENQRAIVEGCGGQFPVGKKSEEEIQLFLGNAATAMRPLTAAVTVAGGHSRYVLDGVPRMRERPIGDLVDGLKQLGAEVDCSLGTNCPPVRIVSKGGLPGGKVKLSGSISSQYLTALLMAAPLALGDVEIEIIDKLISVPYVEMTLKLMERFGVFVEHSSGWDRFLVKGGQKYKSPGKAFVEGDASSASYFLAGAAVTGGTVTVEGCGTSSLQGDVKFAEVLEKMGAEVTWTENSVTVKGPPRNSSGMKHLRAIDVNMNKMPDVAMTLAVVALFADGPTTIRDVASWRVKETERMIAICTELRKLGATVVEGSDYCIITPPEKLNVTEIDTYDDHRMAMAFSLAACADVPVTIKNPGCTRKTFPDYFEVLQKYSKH

For `O=C(O)CNCP(=O)(O)O` [glyphosate, N-phosphonomethylglycine], the “callus growth on glyphosate” value in assay [1] is “capable of growth”. Also, the “EPSP synthase activity in the presence of glyphosate” value in assay [2] is “no activity was detected”; in assay [5] (100 mM glyphosate, product of pMON9960), “still showing detectable activity”. In assay [3], this compound came in with an IC50 of 32 mM. The callus growth in assay [4] (0.25 mM glyphosate) is “very little growth of callus”; in assay [4] (0.5 mM glyphosate), “no callus growth”. Also, in assay [5] (1 mM glyphosate, product of pMON9960), the “inhibition of EPSP synthase activity” value is given as “only slightly inhibited”. In addition, the inhibition at 10000 µM in assay [5] (read-out: inhibition of EPSP synthase activity) was 25%.
